Measured values reported in patent US10501414B2, “Indole analogs as 5-oxo-ETE receptor antagonists and method of use thereof” (THE ROYAL INSTITUTION FOR THE ADVANCEMENT OF …, priority 2015, dated 2019).
Entries after “also recorded” stand apart in the source; their conditions may differ. Like-named read-outs stand apart in the source and are kept apart here. Blank lines part the entries; values can stand above or below the compound they belong to.

Legend:
[1] = Antagonist concentrations in blood (plasma) following oral administration; assay type: in vivo; details: cynomolgus monkeys
Description: Measurement of Antagonist Concentrations in Blood Following Oral Administration
Antagonists dissolved in ethanol (5 to 75 mg/ml) and added to 20 mM NaHCO3 pH 8.0. The resulting suspension (7 to 13 ml containing 10% ethanol) was administered by gavage (between 1 and 30 mg/kg) to cynomolgous monkeys (3 to 4 kg body weight). After different times (between 0.5 and 24 h as well as just prior to administration of antagonist) blood samples (1-2 ml) were taken and centrifuged to obtain plasma, which was frozen and transported to the laboratory as soon as the experiment was complete. Upon arrival at the laboratory, the plasma samples were thawed and the internal standards (1.5 μg), along with 2 volumes of MeOH, were added, the mixture vortexed, and then stored at −80° C. until analysis. The internal standards were structural analogs containing different numbers of methylene groups. Prior to analysis the plasma samples were warmed to room temperature, the above plasma samples containing MeOH were centrifuged and water was added to the supernatant to give a final concentration of 30%. The samples were then applied to a C18 SepPak cartridge (Waters Associates) that had previously been washed with MeOH followed by water (Powell, W. S., Prostaglandins, 1980. 20: p. 947-957). The extracts were analyzed by reversed-phase HPLC combined with automated precolumn extraction (Powell, W. S., Anal. Biochem., 1987. 164: p. 117-131). The stationary phase for the separation was a Novapak C18 column (4 μm particle size; 3.9×150 mm). The amounts of antagonists were determined on the basis of UV absorbance by comparing the peak area for the antagonist in question with that for the corresponding internal standard and correcting for any difference in extinction coefficient.
To examine the PK profiles of compounds V197 and V230 these compounds were administered to cynomolgus monkeys by oral gavage at a dose of 30 mg/kg. Plasma levels were measured following solid-phase extraction by reversed-phase high performance liquid chromatography (HPLC) after 0.5, 1, 2, 4, 8, 18, and 24 h using appropriate internal standards.

OXE receptor [2] = target: T1, OXE receptor (Homo sapiens, UniProt Q8TDS5); assay: Calcium mobilization in human granulocytes (inhibition of 5-oxo-ETE-induced calcium mobilization); assay type: cell-based
T1 construct: Human granulocytes (≥95% neutrophils) are prepared from whole blood; endogenous in cells; host or cells: human granulocytes (≥95% neutrophils) from whole blood
Description: Evaluation of Antagonist Activity: Calcium Mobilization in Human Granulocytes
Human granulocytes (≥95% neutrophils) are prepared from whole blood using Dextran 500 to remove red blood cells, followed by centrifugation over Ficoll-Paque to remove mononuclear cells and hypotonic lysis of any remaining red blood cells. After centrifugation the granulocytes are suspended in Ca^++/Mg^++-free phosphate-buffered saline (PBS^−). Granulocytes (10^7 cells/ml) are incubated with the acetoxymethyl ester of indo-1 (1 μM) for 30 min, followed by washing twice with PBS^− and resuspension in the same medium to obtain a final cell concentration of 3.22×10^6 cells/ml. Five minutes prior to commencing data acquisition, Ca^++ and Mg^++ are added to give final concentrations of 1.8 and 1 mM, respectively. Calcium measurements are performed at 37° C. using a spectrofluorometer equipped with a temperature-controlled cuvette holder and a magnetic stirrer. The excitation and emission wavelengths are 331 nm and 410 nm, respectively. Following stabilization of the baseline, fluorescence is measured for 1 min, prior to the addition of either vehicle or various concentrations of a potential 5-oxo-ETE antagonist. Two min later, 5-oxo-ETE (10 nM) is added, followed 1 min later by digitonin (final concentration 0.1%). Data acquisition is terminated after a further 0.5 min. Fmax is determined from fluorescence measurements after the addition of digitonin, whereas Fmin is determined after determination of autofluorescence as described in the literature. A dissociation constant of 250 nM for the indo-1/Ca^++ complex is used to calculate [Ca^++]i. The % inhibition of 5-oxo-ETE-induced calcium mobilization by the antagonist is calculated as follows: Inhibition (%)=(1−(Caant/Ca^++veh))×100 where Caant is the increase in cytosolic calcium levels induced by 5-oxo-ETE (10 nM) following the addition of a potential antagonist, whereas Caveh is the response induced by 5-oxo-ETE following addition of vehicle alone.

[3] = test system: 5-oxo-ETE-induced dermal eosinophil infiltration; assay: Inhibition of 5-oxo-ETE-induced dermal eosinophil infiltration; assay type: in vivo; details: Rhesus monkeys, biopsy at 24 h
Description: Inhibition of 5-Oxo-ETE-Induced Dermal Eosinophil Infiltration
Rhesus monkeys (n=6) were injected intradermally with 5-oxo-ETE (5 μg) or vehicle. Compound 50 (5 or 10 mg/kg) or vehicle were administered by oral gavage both 1 h before and 7 h after injection of 5-oxo-ETE.
Skin biopsies were taken 24 h after administration of 5-oxo-ETE and sections from paraffin-embedded tissue were stained for eosinophil major basic protein, followed by counting of eosinophils.

[4] = Metabolism of OXE antagonists by monkey liver microsomes; assay type: in vitro ADME, cynomolgous monkey
Description: Metabolism of OXE Antagonists by Monkey Microsomes
Microsomes (catalog number MKMC-PL) from cynomolgous monkey liver were obtained from Life Technologies. Antagonists (100 μM) were incubated for various times with liver microsomes (0.5 mg protein/ml) in PBS in the presence of NADPH (2 mM). After various times aliquots (0.1 ml) were removed and placed in a tube containing 0.36 ml ice-cold methanol. After addition of 0.74 ml of water along with 1 μg of an appropriate internal standard the samples were stored at −80° C. until analysis by reversed-phase HPLC.

OXE receptor [5] = target: T1, OXE receptor; details: previously described values for V230 and its enantiomers; read-out: IC50, previously disclosed/reported; cited from earlier work
[6] = oral gavage 30 mg/kg, over 24 h
[7] = inhibition of calcium mobilization induced by 5-oxo-ETE (10 nM) in human granulocytes, bracketed figure in cell = n, read-out: IC50
[8] = 5-oxo-ETE-induced calcium mobilization, read-out: potency (IC50) in the picomolar range
[9] = oral gavage 30 mg/kg, over 24 h, 30 mg/kg

T1 sequence (Q8TDS5 whole entry): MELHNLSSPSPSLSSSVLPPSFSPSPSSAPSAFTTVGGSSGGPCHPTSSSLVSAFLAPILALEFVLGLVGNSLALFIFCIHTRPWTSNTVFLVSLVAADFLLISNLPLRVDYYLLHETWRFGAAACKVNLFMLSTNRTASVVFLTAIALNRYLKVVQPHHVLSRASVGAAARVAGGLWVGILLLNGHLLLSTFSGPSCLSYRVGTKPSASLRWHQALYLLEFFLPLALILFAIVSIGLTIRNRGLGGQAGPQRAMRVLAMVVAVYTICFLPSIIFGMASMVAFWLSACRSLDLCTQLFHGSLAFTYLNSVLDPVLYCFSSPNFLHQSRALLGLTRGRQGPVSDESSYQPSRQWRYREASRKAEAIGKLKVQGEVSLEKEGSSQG

SMILES: C[C@@H](CC(=O)O)CC(=O)c1c(CCCCCCc2ccccc2)n(C)c2ccc(Cl)cc12 (single isomer, unassigned) [Compound 61]
course of plasma levels / PK profile in words [1, 6]: higher than those of the S-enantiomer and dropped much more slowly | IC50 (OXE receptor [2]; [7]): 23 ± 2 nM

SMILES: C[C@H](CC(=O)O)CC(=O)c1c(CCCCCCc2cccc(Cl)c2)n(C)c2ccc(Cl)cc12 [Compound 50, (S)-5-(5-chloro-2-(6-(3-chlorophenyl)hexyl)-1-methyl-1H-indol-3-yl)-3-methyl-5-oxopentanoic acid]
5-Oxo-ETE-induced eosinophil infiltration ([3]; 5 mg/kg oral gavage 1 h before and 7 h after 5-oxo-ETE, p<0.005): significantly inhibited | 5-Oxo-ETE-induced eosinophil infiltration ([3]; 10 mg/kg oral gavage 1 h before and 7 h after 5-oxo-ETE, p<0.02): significantly inhibited | IC50 (OXE receptor [2]; [8]): ~0.008 nM | IC50 (OXE receptor [2]; [7]): 0.0081 ± 0.0013 nM

SMILES: C[C@H](CC(=O)O)CC(=O)c1c(CCCCCCc2ccccc2)n(C)c2ccc(Cl)cc12 [Compound 46, (S)-5-(5-chloro-1-methyl-2-(6-phenylhexyl)-1H-indol-3-yl)-3-methyl-5-oxopentanoic acid]
course of plasma levels / PK profile in words [1, 6]: fell much more slowly | plasma levels relative to V230 at later time points [1, 6]: at least 10 times higher | difference in unmetabolized:metabolized ratio versus V230 ([4]; 4 h, in favor of 46): 4 fold | IC50 (OXE receptor [2]; [7]): 0.1 nM

SMILES: CC(CC(=O)O)CC(=O)c1c(CCCCCCc2ccccc2)n(C)c2ccc(Cl)cc12 (racemic) [Compound 15, 5-(5-chloro-1-methyl-2-(6-phenylhexyl)-1H-indol-3-yl)-3-methyl-5-oxopentanoic acid]
course of plasma levels / PK profile in words [1, 6]: declined much more slowly than the S-enantiomer | IC50 (OXE receptor [2]; [7]): 0.18 nM

SMILES: CC(CC(=O)O)CC(=O)c1c(CCCCCCc2cccc(O)c2)n(C)c2ccc(Cl)cc12 (stereo not drawn) [Compound 38, 5-(5-chloro-2-(6-(3-hydroxyphenyl)hexyl)-1-methyl-1H-indol-3-yl)-3-methyl-5-oxopentanoic acid]
IC50 (OXE receptor [2]; [7]): 1.9 ± 0.3 nM

SMILES: CC(=O)CCCCc1c(C(=O)CC(C)CC(=O)O)c2cc(Cl)ccc2n1C (stereo not drawn) [Met b V230 (ω-1)oxo, reference compound]
IC50 (OXE receptor [2]; [7]): 1900 ± 500 nM | times less potent than compound V230 in blocking 5-oxo-ETE-induced calcium mobilization in neutrophils (OXE receptor [2]; relative to V230): about 100 times

SMILES: COc1cccc(CCCCCCc2c(C(=O)C[C@H](C)CC(=O)O)c3cc(Cl)ccc3n2C)c1 (single isomer, unassigned) [Compound 52]
IC50 (OXE receptor [2]; [7]): 0.051 ± 0.007 nM

SMILES: CC(CC(=O)O)CC(=O)c1c(CCCCCCc2cccc(Cl)c2)n(C)c2ccc(Cl)cc12 (racemic) [Compound 20, 5-(5-chloro-2-(6-(3-chlorophenyl)hexyl)-1-methyl-1H-indol-3-yl)-3-methyl-5-oxopentanoic acid]
IC50 (OXE receptor [2]; [8]): ~0.033 nM | IC50 (OXE receptor [2]; [7]): 0.033 ± 0.003 nM

Further lines, with some results ahead:

IC50 (OXE receptor [2]; [7]): 20 nM
SMILES: CC(C)CCCCc1c(C(=O)CC(C)CC(=O)O)c2cc(Cl)ccc2n1C (stereo not drawn) [Compound V197, reference compound]
course of plasma levels / PK profile in words [1, 9]: dropped quite rapidly after 1 h; also recorded: inferior to that of compound V230

extent of metabolism in plasma in words ([1]; oral gavage 30 mg/kg, after 8 h, compared with 46): much greater | extent of metabolism by microsomes in words ([4]; NADPH, up to 4 h, compared with 46): much greater
SMILES: CCCCCCc1c(C(=O)C[C@H](C)CC(=O)O)c2cc(Cl)ccc2n1C [Compound V230, reference compound]
IC50 (OXE receptor [5]): 26 ± 4 nM | course of plasma levels / PK profile in words [1, 9]: dropped quite rapidly after 1 h; also recorded: rapid decline

time to peak / maximal plasma levels ([1]; oral gavage 30 mg/kg (46M after administration of 46)): 8 to 12 h | IC50 (OXE receptor [2]; [7]): 0.8 ± 0.3 nM
SMILES: C[C@H](CC(=O)O)CC(=O)c1c(C(O)CCCCCc2ccccc2)n(C)c2ccc(Cl)cc12 (stereo partly drawn) [Compound 46M]
antagonist activity / potency in words (OXE receptor [2]; 5-oxo-ETE-induced calcium mobilization): 5-oxo-ETE-induced calcium mobilization inhibitors
